Assay results published in patent US20250244419A1, “INFUSION DEVICE FOR THE PREPARATION AND DELIVERY OF MRI PROBES” (The United States of America, as represented by the …, priority 2022, published 2025).

Assay: Relaxation dynamics of hyperpolarized [1-13C]pyruvate (build-up time Tb, T1)
Type: physicochemical
Details: for corresponding T1 value: same conditions as build-up
Description: In addition, the relaxation dynamics of the [1-^13C]pyruvate were also studied.
In addition, relaxation dynamics at earth field and 1.8 T are about the same as a non-fluorinated SABRE catalyst T1=28.9±1.6 s and 66.5±7 s, respectively.
In addition, relaxation dynamics at earth field and 1.8 T are about the same as a non-fluorinated SABRE catalyst T1=9.0±1.9 s and 16.0±1.4 s, respectively.

[1] = NFBME / deuterated methanol mixture, catalyst of Example 4
[2] = methanol, catalyst of Example 4, DMSO co-ligand

C[13C](=O)C(=O)O [[1-^13C]pyruvate, Sodium [1-^13C]-pyruvate]
T1 at 1.8 T [1]: 16.0 ± 1.4 s
T1 at earth field [1]: 9.0 ± 1.9 s
corresponding T1 value [1]: 11.3 ± 1.3 s
T1 at 1.8 T [2]: 66.5 ± 7 s
T1 at earth field [2]: 28.9 ± 1.6 s
corresponding T1 value [2]: 16.1 ± 0.9 s
